Like-named read-outs stand apart in the source and are kept apart here.
Legend:
[1] = tested on: lepidopteran larvae: cabbage loopers (Trichoplusia ni) and beet armyworms (Spodoptera exigua); type: in vivo; details: plants
Method: In a first group of tests, the results of which are shown in Table 7 (pages 22-24), romaine lettuce plants two to three inches in height were exposed to 10 milliliters of solution applied to each plant using a low volume trigger spray. With respect to containers 0-7, ten plants were employed per container, nine were treated and one was an internal control. In containers M-H, ten plants per container were used, five were treated and 5 were internal controls. Each container was infested with 30 lepidopteran larvae between the 5th and 6th instar development. Fifteen cabbage loopers (Trichoplusia ni) and 15 beet armyworms (Spodoptera exigua) were used to infest the romaine lettuce plants. Visual evaluations for the average percentage total surface area damage were taken 24 hours after infestation. Percentage damage was evaluated by 5% increments for total damage across all plant leaves.
As indicated in the first column of Table 7, in some tests, no insecticide was employed and there were two controls; a no water control and a no dye control. A wide variety of insecticides selected from the following group were tested: Chlorantranilopril, Acephate, Methoxyfenozide, Spinosad, Permethrin, and Indoxacarb. The product concentration is shown in PPM in column 2. Column 3 is divided into two subunits, the first being CO3 and the second, PO4. In all instances in columns 3, 4 and 5 and their sub-columns, the concentrations used were 200:1. The fourth column employed amine oxide, but no buffer. […] Two sub-columns each are represented for CO3 and PO4. The final column is a reading of the Percent Lepidopteran Damage to the romaine lettuce plants after 24 hours.
In addition to testing the buffered amine system of the present invention with the two amine oxides identified as CO3 and PO4 and their use with 12 carbon length and a mixture of 12 and 18 designated 1218 for comparative data purposes various differences were created in the testing. Some of the tests were performed with (a) no insecticide along with (b) no amine oxide for CO3 and PO4 and (c) with no buffer, but with amine oxide. Also, tests were run using no insecticide and no water control with no foliar application being made. Tests with no insecticide and no dye control employed foliar application of water only. The tests were conducted with all of the testing on the buffer alone, the amine oxide alone and the buffered amine oxide system of the present invention in the concentration of 200:1.

[2] = tested on: lepidopteran larvae: cabbage loopers (Trichoplusia ni) and beet armyworms (Spodoptera exigua); type: in vivo; details: leaf discs
Description: A second series of tests involved romaine lettuce discs approximately ⅝ inch in diameter. (L. sativa). They were dipped in the treatment solution one second per disc. This test involved the 5/5 configuration, i.e., 5 treated and 5 untreated. The infestation involved […] lepidopteran larvae at the 3rd to 4th instar development per container: four cabbage loopers (Trichoplusia ni), and four beet armyworms (Spodoptera exigua) were employed. The test containers were placed in a dark humidity cabinet at 15° C. and 80% relative humidity. Visual evaluations of the average percent damage were taken at 24, 48 and 72 hours after the initiation of infestation. Damage was evaluated in 5% increments based on total disc area.
In the tests reported in Table 8 pages 29-32), romaine lettuce leaf discs ⅝″ in diameter (L. sativa) were dipped in the treatment solution for about one second per disc. Infestation was provided by eight lepidopteran larvae at the 3rd to 4th instar development per container. Four cabbage loopers (Trichoplusia ni) and four beet armyworms (Spodoptera exigua) were employed in infestation. The containers were placed in a dark humidity cabinet at 15° C. and 80% relative humidity. Visual observations of the average percent damage was taken at 24, 48 and 72 hours after infestation. Damage evaluation was by 5% increments over the total disc area.
In the tests results provided in Table 8, the identity and concentrations of the insecticide was identical to the tests results reported in Table 7. The concentration of 200:1 was employed for the no amino oxide, no buffer and buffered amine oxide system. This series of tests, however, reported how the percent damage changed with time at the respective 24, 48 and 72 hour intervals.

[3] = insecticide + CO3 buffer 200:1, no amine oxide, PPM: Chlorantranilopril 60, Acephate 70, Methoxyfenozide 100, Spinosad 30, Permethrin 10, Indoxacarb 50
[4] = insecticide + PO4 buffer 200:1, no amine oxide, PPM: Chlorantranilopril 60, Acephate 70, Methoxyfenozide 100, Spinosad 30, Permethrin 10, Indoxacarb 50
[5] = insecticide + amine oxide 12, no buffer, 200:1, PPM: Chlorantranilopril 60, Acephate 70, Methoxyfenozide 100, Spinosad 30, Permethrin 10, Indoxacarb 50
[6] = insecticide + amine oxide 1218, no buffer, 200:1, PPM: Chlorantranilopril 60, Acephate 70, Methoxyfenozide 100, Spinosad 30, Permethrin 10, Indoxacarb 50
[7] = insecticide + buffered amine oxide system CO3, 12, 200:1, PPM: Chlorantranilopril 60, Acephate 70, Methoxyfenozide 100, Spinosad 30, Permethrin 10, Indoxacarb 50
[8] = insecticide + buffered amine oxide system CO3, 1218, 200:1, PPM: Chlorantranilopril 60, Acephate 70, Methoxyfenozide 100, Spinosad 30, Permethrin 10, Indoxacarb 50
[9] = insecticide + buffered amine oxide system PO4, 12, 200:1, PPM: Chlorantranilopril 60, Acephate 70, Methoxyfenozide 100, Spinosad 30, Permethrin 10, Indoxacarb 50
[10] = insecticide + buffered amine oxide system PO4, 1218, 200:1, PPM: Chlorantranilopril 60, Acephate 70, Methoxyfenozide 100, Spinosad 30, Permethrin 10, Indoxacarb 50
[11] = insecticide alone, highest, PPM: Chlorantranilopril 120, Acephate 140, Methoxyfenozide 200, Spinosad 60, Permethrin 20, Indoxacarb 100
[12] = insecticide alone, increased, PPM: Chlorantranilopril 90, Acephate 105, Methoxyfenozide 150, Spinosad 45, Permethrin 15, Indoxacarb 75
[13] = insecticide alone, PPM: Chlorantranilopril 60, Acephate 70, Methoxyfenozide 100, Spinosad 30, Permethrin 10, Indoxacarb 50

For `COc1cccc(C(=O)NN(C(=O)c2cc(C)cc(C)c2)C(C)(C)C)c1C` [Methoxyfenozide], the “Percent Lepidopteran Damage to Romaine Lettuce 24 hr” value [1, 3] was 13.5%, the “Percent Lepidopteran Damage to Romaine Lettuce 24 hr” value [1, 4] was 22.0% and the “Percent Lepidopteran Damage to Romaine Lettuce 24 hr” value [1, 5] was 28.0%. For the same compound, the “Percent Lepidopteran Damage to Romaine Lettuce 24 hr” value [1, 6] was 13.0%, the “Percent Lepidopteran Damage to Romaine Lettuce 24 hr” value [1, 7] was 8.0% and the “Percent Lepidopteran Damage to Romaine Lettuce 24 hr” value [1, 8] was 9.0%. The “Percent Lepidopteran Damage to Romaine Lettuce 24 hr” value [1, 9] was 7.5%, the “Percent Lepidopteran Damage to Romaine Lettuce 24 hr” value [1, 10] was 4.5% and the “Percent Lepidopteran Damage to Romaine Lettuce 24 hr” value [1, 11] was 23.5%. For the same compound, the “Percent Lepidopteran Damage to Romaine Lettuce 24 hr” value [1, 12] was 43.0%, the “Percent Lepidopteran Damage to Romaine Lettuce 24 hr” value [1, 13] was 29.5% and the “Percent Lepidopteran Damage to Romaine Lettuce 24 hr” value [2, 3] was 96.0%. The “Percent Lepidopteran Damage to Romaine Lettuce 24 hr” value [2, 4] was 100.0%, the “Percent Lepidopteran Damage to Romaine Lettuce 24 hr” value [2, 5] was 79.5% and the “Percent Lepidopteran Damage to Romaine Lettuce 24 hr” value [2, 6] was 72.0%. For the same compound, the “Percent Lepidopteran Damage to Romaine Lettuce 24 hr” value [2, 7] was 42.5%, the “Percent Lepidopteran Damage to Romaine Lettuce 24 hr” value [2, 8] was 43.0% and the “Percent Lepidopteran Damage to Romaine Lettuce 24 hr” value [2, 9] was 54.5%. The “Percent Lepidopteran Damage to Romaine Lettuce 24 hr” value [2, 10] was 85.0%, the “Percent Lepidopteran Damage to Romaine Lettuce 24 hr” value [2, 11] was 100.0% and the “Percent Lepidopteran Damage to Romaine Lettuce 24 hr” value [2, 12] was 100.0%. For the same compound, the “Percent Lepidopteran Damage to Romaine Lettuce 24 hr” value [2, 13] was 84.0%, the “Percent Lepidopteran Damage to Romaine Lettuce 48 hr” value [2, 3] was 99.5% and the “Percent Lepidopteran Damage to Romaine Lettuce 48 hr” value [2, 4] was 100.0%. For the same compound, the “Percent Lepidopteran Damage to Romaine Lettuce 48 hr” value [2, 5] was 82.5%, the “Percent Lepidopteran Damage to Romaine Lettuce 48 hr” value [2, 6] was 80.5% and the “Percent Lepidopteran Damage to Romaine Lettuce 48 hr” value [2, 7] was 51.5%. For the same compound, the “Percent Lepidopteran Damage to Romaine Lettuce 48 hr” value [2, 8] was 67.0%, the “Percent Lepidopteran Damage to Romaine Lettuce 48 hr” value [2, 9] was 67.5% and the “Percent Lepidopteran Damage to Romaine Lettuce 48 hr” value [2, 10] was 87.0%. The “Percent Lepidopteran Damage to Romaine Lettuce 48 hr” value [2, 11] was 100.0%, the “Percent Lepidopteran Damage to Romaine Lettuce 48 hr” value [2, 12] was 100.0% and the “Percent Lepidopteran Damage to Romaine Lettuce 48 hr” value [2, 13] was 94.0%. The “Percent Lepidopteran Damage to Romaine Lettuce 72 hr” value [2, 3] was 100.0%, the “Percent Lepidopteran Damage to Romaine Lettuce 72 hr” value [2, 4] was 100.0% and the “Percent Lepidopteran Damage to Romaine Lettuce 72 hr” value [2, 5] was 87.0%. The “Percent Lepidopteran Damage to Romaine Lettuce 72 hr” value [2, 6] was 87.5%, the “Percent Lepidopteran Damage to Romaine Lettuce 72 hr” value [2, 7] was 57.0% and the “Percent Lepidopteran Damage to Romaine Lettuce 72 hr” value [2, 8] was 73.5%. The “Percent Lepidopteran Damage to Romaine Lettuce 72 hr” value [2, 9] was 73.0%, the “Percent Lepidopteran Damage to Romaine Lettuce 72 hr” value [2, 10] was 88.0% and the “Percent Lepidopteran Damage to Romaine Lettuce 72 hr” value [2, 11] was 100.0%. For the same compound, the “Percent Lepidopteran Damage to Romaine Lettuce 72 hr” value [2, 12] was 100.0% and the “Percent Lepidopteran Damage to Romaine Lettuce 72 hr” value [2, 13] was 96.0%.
